Measured values reported in patent publication US8455000B2, “Resorbable polymer compositions for use in medicine, dentistry, and surgery” (Syncera Inc., priority 2006, dated 2013).
Where two headings read alike, the source gives them in different places.

Tests used:
[1] = in words; cited from earlier work
[2] = Retention and release of dyes from PE-PEG matrix into phosphate buffered saline; format: physicochemical; conditions: dye only, tube 10
Protocol: Method: C50 PE-PEG16 was blended with PLURONIC™ L44 in a ratio of 7:3 w/w as described in Example 3. Rose Bengal (100 mg) and SR24 (100 mg) were mixed with 5 g aliquots of molten PE-PEG and PE-PEG/poloxamer blend, and maintained at 110° C. with mixing until the dye was fully dissolved.
Ten small (6 ml) glass test tubes were prepared as shown in Tables 5-6, Tubes 4-7 contained 0.5 g of the PE-PEG and PE-PEG/polymer samples mixed with dye, tubes 2, 3, 8 and 9 contained 0.5 g PE-PEG and PE-PEG/polymer samples (without dye) and 10 mg of dye added separately (after the PE-PEG or blend had solidified), tubes 1 and 10 contained only the dye, as controls.
Each glass test tube was affixed to the inside of a 50 ml polypropylene centrifuge tube with a silicone adhesive. Fifty ml of phosphate buffered saline was added to each of the tubes, and they were rocked gently for six days. At appropriate time points, the concentration of dye in the buffer was measured using a spectrophotometer. The SR24 dye was measured at 516 nm, the Rose Bengal concentration was estimated from the maximal absorption λmax from 540 nm to 560 nm.

For `Cc1ccccc1/N=N/c1ccc(/N=N/c2c(O)ccc3ccccc23)c(C)c1` [SR24, Solvent Red 24], the solubility in water [1] is given as “negligible solubility” and the solubility in water [2] is given as “zero solubility”.
